The record followed here is patent US20200121605A1, “METHODS AND COMPOSITIONS FOR LOCALIZED INTRADUCTAL DRUG DELIVERY TO THE BREAST AND REGIONAL LYMPH NODES” (South Dakota Board of Regents, priority 2018, published 2020).

A value given as a limit tells only on which side of the number the result lay.

Details of series [1]: species or system rats. Conditions: rat, in vivo. The procedure:
(§1) For In vivo studies, the levels of 4-hydroxytamoxifen and endoxifen were measured using LC-MS.
(§2) The tissues were mixed with TRIS HCl buffer (1 ml/mg) and homogenized at 6000 rpm for 3 minutes under ice. For lymph nodes, sonication (45% amplitude in pulse mode 1 sec on and 1 sec off for 2 minutes under ice) was used to homogenize the tissue. From this, 200 μl of tissue homogenate was mixed with 800 μl of acetonitrile to precipitate proteins (1:4 v/v). This was then vortexed for 1-2 minutes followed by sonication for 3 minutes. The plasma was then centrifuged at 10,000 rpm at 4° C. for 10 minutes. The supernatant was collected and evaporated to dryness under gentle stream of Argon. The residue was then reconstituted with 100 μl of Ammonium Formate, pH 3.5: Acetonitrile (7:3 v/v). This was vortexed for 1 minute followed by sonication for 2 minutes. The reconstituted mixture was centrifuged at 10,000 rpm for 10 minutes at 4° C. The supernatant was collected and 15 μl was injected into LC-MS to determine drug levels.

The conditions of series [2]: rat, in vivo. The procedure: as §1, §2
Series [3] can be described thus: Breast (mammary gland) concentration of tamoxifen and 4-hydroxytamoxifen after intraductal injection. In kind it is in vivo. The procedure: (§3) For In vivo studies, the levels of Tamoxifen and two major metabolites 4-hydroxytamoxifen (4HT) and endoxifen (EDX) were measured using LC-MS. (Liquid chromatography-Mass spectroscopy)
(§4) The mammary gland and all the other vital organs (liver, spleen, kidney, lungs, heart, and uterus) were weighed and washed with PBS to remove blood. The tissues were mixed with TRIS HCl buffer (1 ml/mg) and homogenized at 6000 rpm for 3 minutes under ice. For lymph nodes, sonication (45% amplitude in pulse mode 1 sec on and 1 sec off for 2 minutes under ice) was used for homogenization. From this, 200 μl of tissue homogenate was mixed with 800 μl of acetonitrile (1:4 v/v) for protein precipitation. This was vortexed for 1-2 minutes followed by sonication for 3 minutes. The homogenate was centrifuged at 10,000 rpm at 4° C. for 10 minutes. The supernatant was collected and evaporated to dryness under gentle stream of Argon. The residue was reconstituted with 100 μl of ammonium formate (pH 3.5): acetonitrile (7:3 v/v). This was vortexed for 1 minute followed by sonication for 2 minutes. The reconstituted mixture was centrifuged at 10,000 rpm for 10 minutes at 4° C. The supernatant was gently removed and 15 μl was injected into LC-MS for quantification.

Series [4] is described as follows: Organ distribution of tamoxifen PLGA formulations. In kind it is in vivo. Conditions: end of the treatment. On the procedure: as §3, §4
The nature of series [5]: Plasma levels of tamoxifen and metabolites after intraductal injection of tamoxifen formulations (LC-MS). In kind it is in vivo. The procedure: as §3
For determining drug levels in plasma, 100 μl of plasma was mixed with 400 μl of acetonitrile to precipitate proteins (1:4 v/v). This was then vortexed for 1-2 minutes followed by sonication for 3 minutes. The plasma was then centrifuged at 10,000 rpm at 4° C. for 10 minutes. The supernatant was collected and evaporated to dryness under gentle stream of Argon. The residue was then reconstituted with 100 μl of ammonium formate, (pH 3.5): acetonitrile (7:3 v/v). This was vortexed for 1 minute followed by sonication for 2 minutes. The reconstituted mixture was centrifuged at 10,000 rpm for 10 minutes at 4° C. The supernatant was collected and 15 μl was injected into LC-MS to determine drug levels.

A short description of series [6]: Intraductal retention of Cy5.5 labelled PLGA formulations, whole body imaging. Format: in vivo, Female SD rats. On the procedure: Female SD rats were anesthetized using isoflurane and the hair around the nipple region was removed using hair removing cream. The keratin plug from the inguinal mammary gland (5th or 6th nipple from the head) was removed gently holding the nipple using tweezers and wiping with 70% alcohol.
For microspheres and nanoparticles, around 0.5 to 1.5 mg particles was dispersed in PBS containing 0.5% w/v Tween 80 and vortexed for 30-60 seconds. For In situ implants, 50-100 μl of gel containing an equivalent amount of Cy5.5 was used. After dilation of the nipple orifice, 50-100 μl of the formulation was injected intraductally into the inguinal mammary glands using 27-31 G needle under a surgical microscope.
The animals were imaged using Bruker in Vivo Xtreme II optical imaging system at predetermined time points (0 to 96 hours) to study the distribution of the carrier system in the breast. Following instrument settings were used: Excitation/Emission: 690/750 nm; Bin: 1×1 pixels; Exposure time: 20 seconds, f-stop: 1.2, FOV: 19. Fluorescence intensities were plotted against time by choosing a constant ROI around the injected mammary gland and subtracting the fluorescence intensity from the contralateral mammary gland.

Series [7] can be described thus: Imaging of regional (axillary) lymph nodes after intraductal injection. Format: in vivo, female Sprague Dawley rats. On the procedure: Intraductal injection was performed following the method described in the previous section. Regional lymph nodes (Axillary lymph node) were identified and dissected at 2 hours, 24 hours and 48 hours after intraductal injection. The lymph nodes were then imaged using whole body animal imaging system to determine the localization of formulation in the lymph nodes.

The mark [8] stands for this setting: breast (mammary gland), tamoxifen in breast.
[9] abbreviates: intraductal retention, Cy 5.5 fluorescence intensity profile, 0 to 96 hours.

Take “4-hydroxytamoxifen [Free 4-hydroxy tamoxifen]”: in series [1], the “4 hydroxy tamoxifen in the tissues” value is “undetectable” and the “systemic exposure of endoxifen in all the tissues” value is “higher systemic exposure”. The “retention in the mammary gland, in words” value in series [2] is “very low levels”.
Take `CC/C(=C(\c1ccccc1)c1ccc(OCCN(C)C)cc1)c1ccccc1` [Free TMX, tamoxifen]: in series [3], the “not retained in the mammary glands after” value was 3 days and the “retained in the mammary gland for only” value amounted to 72 h. For the same molecule, in series [3] (setting [8]), the AUC was 125000 ± 3690 ng·h/mL, the peak level (Cmax) was 4370 ± 67.7 ng/mL, the MRT was found to be 26.5 ± 4.3 h and the time of peak concentration (Tmax) stood at 12 h. For the same molecule, the half-life in series [3] (setting [8]) is 14.87 ± 0.04 h. The molecule also yielded a ke in series [3] (tamoxifen in breast) of 0.020 ± 0.0005. For the same molecule, the “uterine exposure of tamoxifen and metabolites” value in series [4] is “resulted in uterine exposure”. Besides, the “duration of detectable plasma tamoxifen” value in series [5] amounted to 3 days. In addition, in series [5] (Tamoxifen in plasma), the AUC worked out at 116 ± 43.3 ng·h/mL, the AUMC turned out to be 4546.37 ± 466.103 ng · hr^2/ml, the Cmax stood at 8.9 ± 1.55 ng/mL and the MRT turned out to be 47.7 ± 3.15 h. In series [5] (Tamoxifen in plasma), the Tmax came out at 0.3 h, the half-life was 19.5 ± 4.24 h and the ke worked out at 0.015 ± 0.002 h⁻¹.
For Cy 5.5, in series [6] (breast ducts, non-invasive imaging), the “no fluorescence signals recorded after” value amounted to 4 h. For the same molecule, in series [6] (setting [9]), the k worked out at 0.40 ± 0.03 h⁻¹ and the “t1/2 (retention half-life)” value turned out to be 1.70 ± 0.16 h. The “localization (fluorescence) in the axillary lymph nodes up to” value in series [7] is ≤ 1 h.
